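Following 48 hours of exposure in 96-well plates, responses at five concentrations were used to interpolate endpoints linearly. GI50 is the concentration that inhibits growth by half.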 Activity calls are given as the source filed them. No stated cut-off is given here; in the data, active = GI50 up to about 1.1 µM and inactive = higher.
Experiments:
Assay in all cases: DTP human tumour cell line panel, 48 h
[1] = system: NCI-H226
[2] = system: EKVX
[3] = system: IGROV-1
[4] = system: NCI/ADR-RES
[5] = system: DU-145
[6] = system: BT-549
[7] = system: LOX IMVI
[8] = system: NCI-H522
[9] = system: NCI-H460
[10] = system: SK-MEL-5
[11] = system: A549
[12] = system: OVCAR-4
[13] = system: SW-620
[14] = system: SK-MEL-28
[15] = system: OVCAR-3
[16] = system: OVCAR-8
[17] = system: K562
[18] = system: RXF 393
[19] = system: Malme-3M
[20] = system: UO-31

Row | SMILES | GI50 [1] | GI50 [2] | GI50 [3] | GI50 [4] | GI50 [5] | GI50 [6] | GI50 [7] | GI50 [8] | GI50 [9] | GI50 [10] | GI50 [11] | GI50 [12] | GI50 [13] | GI50 [14] | GI50 [15] | GI50 [16] | GI50 [17] | GI50 [18] | GI50 [19] | GI50 [20]
1 | CSc1c(C(=O)Nc2ccc(C)cc2)c(N)n(N)c(=O)c1C#N | > 100 µM (inactive) | > 100 µM (inactive) | > 100 µM (inactive) | > 100 µM (inactive) | > 100 µM (inactive) | > 100 µM (inactive) | > 100 µM (inactive) | > 100 µM (inactive) | > 100 µM (inactive) | > 100 µM (inactive) | > 100 µM (inactive) | > 100 µM (inactive) | > 100 µM (inactive) | > 100 µM (inactive) | > 100 µM (inactive) | > 100 µM (inactive) | > 100 µM (inactive) | > 100 µM (inactive) | > 100 µM (inactive) | 60.1 µM (inactive)
2 | COc1ccc(C#Cn2nnc3ccccc32)cc1 | 64.7 µM (inactive) | 32.8 µM (inactive) | > 100 µM (inactive) | > 100 µM (inactive) | 41 µM (inactive) | > 100 µM (inactive) | > 100 µM (inactive) | 48 µM (inactive) | > 100 µM (inactive) | > 100 µM (inactive) | > 100 µM (inactive) | > 100 µM (inactive) | > 100 µM (inactive) | > 100 µM (inactive) | 40.5 µM (inactive) | > 100 µM (inactive) | > 100 µM (inactive) | 97.7 µM (inactive) | > 100 µM (inactive) | 2.15 µM (inactive)
3 | N/N=C1\C(OC(=O)Nc2cccc(Cl)c2)=Nc2ccccc21 | 15.3 µM (inactive) | 4.05 µM (inactive) | 8.15 µM (inactive) | 6.4 µM (inactive) | 8.39 µM (inactive) | 7.96 µM (inactive) | 7.83 µM (inactive) | 3.13 µM (inactive) | 6.9 µM (inactive) | 11.5 µM (inactive) | 5.92 µM (inactive) | 7.33 µM (inactive) | 9.12 µM (inactive) | 14.8 µM (inactive) | 2.6 µM (inactive) | 7.31 µM (inactive) | 5.92 µM (inactive) | 13 µM (inactive) | 12.1 µM (inactive) | 5.32 µM (inactive)
4 | CO[C@@H]1[C@H](OC(=O)NC(=O)CCl)CC[C@]2(CO2)[C@H]1[C@@]1(C)O[C@@H]1CC=C(C)C [O-CHLOROACETYLCARBAMOYLFUMAGILLOL] | 19 µM (inactive) | 14.1 µM (inactive) | 12.2 µM (inactive) | 16 µM (inactive) | 12.2 µM (inactive) | 14.6 µM (inactive) | 5.05 µM (inactive) | 5.35 µM (inactive) | 2.04 µM (inactive) | 8.83 µM (inactive) | 7.23 µM (inactive) | 14.4 µM (inactive) | 9.53 µM (inactive) | 12.8 µM (inactive) | 3.49 µM (inactive) | 15.8 µM (inactive) | 12.2 µM (inactive) | 8.36 µM (inactive) | 5.97 µM (inactive) | 9.89 µM (inactive)
5 | C[S+](C)C1(c2ccccc2)C(=O)c2ccccc2C1=O | 48 µM (inactive) | 34 µM (inactive) | > 69.3 µM (inactive) | 24.8 µM (inactive) | > 100 µM (inactive) | 11.8 µM (inactive) | 38.9 µM (inactive) | > 48.8 µM (inactive) | > 55.6 µM (inactive) | > 38.5 µM (inactive) | 36.4 µM (inactive) | > 47.6 µM (inactive) | > 100 µM (inactive) | > 100 µM (inactive) | > 55.1 µM (inactive) | > 54.7 µM (inactive) | > 51.6 µM (inactive) | 33.3 µM (inactive) | > 100 µM (inactive) | 32.1 µM (inactive)
6 | O=C([O-])C(O)C(O)C(=O)O.[K+] (stereo not given) [POTASSIUM HYDROGENTARTRATE] | > 100 µM (inactive) | > 100 µM (inactive) | > 100 µM (inactive) | > 100 µM (inactive) | > 100 µM (inactive) | > 100 µM (inactive) | > 100 µM (inactive) | > 100 µM (inactive) | > 100 µM (inactive) | > 100 µM (inactive) | > 100 µM (inactive) | > 100 µM (inactive) | > 100 µM (inactive) | > 100 µM (inactive) | > 100 µM (inactive) | > 100 µM (inactive) | > 100 µM (inactive) | > 100 µM (inactive) | > 100 µM (inactive) | > 100 µM (inactive)
7 | c1ccc2c(c1)ccn1ccc3c4ccccc4nc-3c21 | 0.31 µM (active) | 0.214 µM (active) | 0.394 µM (active) | 0.33 µM (active) | 0.351 µM (active) | 1.43 µM (inactive) | 0.366 µM (active) | 0.3 µM (active) | 0.262 µM (active) | 0.454 µM (active) | 0.32 µM (active) | 0.332 µM (active) | 0.202 µM (active) | 0.368 µM (active) | 0.918 µM (active) | 0.182 µM (active) | 0.194 µM (active) | 0.439 µM (active) | 0.644 µM (active) | 0.34 µM (active)
